Patent US8952024B2, “Herbicidal pyrimidone derivatives” (E I du Pont de Nemours and Company, priority 2009, dated 2015)

What was measured:
Assay in all cases: Test B pre-/postemergence plant response
Assay type in all cases: in vivo
[1] = system: wheat (Triticum aestivum)
In short: (§1)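 Plants treated either at seeding (loam/sand soil) or postemergence at 2 to 18 cm height, using a surfactant-containing non-phytotoxic solvent formulation. Evaluation was visual after 13 to 15 days, 0 to 100 scale relative to controls.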

[2] = system: pigweed (Amaranthus retroflexus)
In short: as §1

[3] = system: lambsquarters (Chenopodium album)
In short: as §1

[4] = system: goosegrass (Eleusine indica)
In short: as §1

[5] = system: woolly cupgrass (Eriochloa villosa)
In short: as §1

[6] = system: blackgrass (Alopecurus myosuroides)
In short: as §1

[7] = system: ragweed (common ragweed, Ambrosia elatior)
In short: as §1

corn (Zea mays) = system: corn (Zea mays)
In short: as §1

soybean (Glycine max) = system: soybean (Glycine max)
In short: as §1

[8] = system: Italian ryegrass (Lolium multiflorum)
In short: as §1

[9] = system: yellow nutsedge (Cyperus esculentus)
In short: as §1

kochia (Kochia scoparia) = system: kochia (Kochia scoparia)
In short: as §1

[10] = system: velvetleaf (Abutilon theophrasti)
In short: as §1

[11] = system: large crabgrass (Digitaria sanguinalis)
In short: as §1

[12] = system: downy bromegrass (Bromus tectorum)
In short: as §1

[13] = system: johnsongrass (Sorghum halepense)
In short: as §1

wild oat (Avena fatua) = system: wild oat (Avena fatua)
In short: as §1

[14] = system: Surinam grass (Brachiaria decumbens)
In short: as §1

[15] = 250 g ai/ha, Preemergence, 0 to 100 scale
[16] = Postemergence, 31 g ai/ha, scale 0 to 100 (0 no effect, 100 complete control)
[17] = Postemergence, 62 g ai/ha, scale 0 (no effect) to 100 (complete control), 13 to 15 days
[18] = Postemergence, 125 g ai/ha, visual rating after 13 to 15 days, scale 0 (no effect) to 100 (complete control)
[19] = Postemergence, 250 g ai/ha, scale 0 to 100
[20] = Preemergence, 31 g ai/ha, scale 0 to 100 (0 no effect, 100 complete control)
[21] = Preemergence, 62 g ai/ha, scale 0 to 100, 0 no effect, 100 complete control
[22] = Preemergence, 125 g ai/ha, 0 to 100 scale

Cc1cccc(-n2c(-c3ccccc3)ncc(C(=O)C3=C(O)CCCC3=O)c2=O)c1C [Compound 27]
50: Blackgrass plant response rating [6, 19] | Plant response rating, Corn (corn (Zea mays); [18]) | Plant response rating, Nutsedge, Yellow [9, 18] | Plant response rating, Velvetleaf [10, 16] | Plant response rating, Crabgrass, Large [11, 16] | Plant response rating, Crabgrass, Large [11, 17] | Johnsongrass plant response rating [13, 22] | Plant response rating, Oat, Wild (wild oat (Avena fatua); [15]) | Plant response rating, Oat, Wild (wild oat (Avena fatua); [17]) | Plant response rating, Oat, Wild (wild oat (Avena fatua); [18]) | Plant response rating, Surinam Grass [14, 16]
0: Plant response rating, Wheat [1, 16] | Plant response rating, Wheat [1, 20] | Plant response rating, Wheat [1, 21] | Wheat plant response rating [1, 22] | Plant response rating, Cupgrass, Woolly [5, 20] | Plant response rating, Cupgrass, Woolly [5, 21] | Plant response rating, Blackgrass [6, 16] | Plant response rating, Blackgrass [6, 20] | Plant response rating, Blackgrass [6, 21] | Plant response rating, Corn (corn (Zea mays); [15]) | Plant response rating, Corn (corn (Zea mays); [20]) | Plant response rating, Corn (corn (Zea mays); [21]) | Corn plant response rating (corn (Zea mays); [22]) | Plant response rating, Ryegrass, Italian [8, 15] | Plant response rating, Ryegrass, Italian [8, 16] | Plant response rating, Ryegrass, Italian [8, 20] | Plant response rating, Ryegrass, Italian [8, 21] | Ryegrass, Italian plant response rating [8, 22] | Plant response rating, Nutsedge, Yellow [9, 20] | Plant response rating, Bromegrass, Downy [12, 20] | Plant response rating, Bromegrass, Downy [12, 21] | Bromegrass, Downy plant response rating [12, 22] | Plant response rating, Johnsongrass [13, 20] | Plant response rating, Oat, Wild (wild oat (Avena fatua); [20]) | Plant response rating, Oat, Wild (wild oat (Avena fatua); [21]) | Plant response rating, Surinam Grass [14, 20]
45: Plant response rating, Blackgrass [6, 18] | Plant response rating, Johnsongrass [13, 17] | Plant response rating, Johnsongrass [13, 18] | Plant response rating, Oat, Wild (wild oat (Avena fatua); [16])
35: Plant response rating, Corn (corn (Zea mays); [16])
80: Plant response rating, Goosegrass [4, 20] | Plant response rating, Cupgrass, Woolly [5, 15] | Cupgrass, Woolly plant response rating [5, 19] | Soybean plant response rating (soybean (Glycine max); [22]) | Plant response rating, Velvetleaf [10, 18] | Plant response rating, Crabgrass, Large [11, 21] | Johnsongrass plant response rating [13, 19] | Plant response rating, Surinam Grass [14, 18] | Surinam Grass plant response rating [14, 19]
10: Plant response rating, Wheat [1, 18] | Blackgrass plant response rating [6, 22] | Ryegrass, Italian plant response rating [8, 19]
5: Plant response rating, Wheat [1, 15] | Plant response rating, Wheat [1, 17] | Plant response rating, Blackgrass [6, 17] | Plant response rating, Ryegrass, Italian [8, 17] | Plant response rating, Ryegrass, Italian [8, 18] | Plant response rating, Crabgrass, Large [11, 20] | Plant response rating, Bromegrass, Downy [12, 16] | Plant response rating, Bromegrass, Downy [12, 17] | Plant response rating, Johnsongrass [13, 21]
40: Plant response rating, Corn (corn (Zea mays); [17]) | Plant response rating, Nutsedge, Yellow [9, 17] | Plant response rating, Johnsongrass [13, 16]
55: Nutsedge, Yellow plant response rating [9, 19] | Plant response rating, Velvetleaf [10, 20]
85: Plant response rating, Ragweed [7, 16] | Plant response rating, Ragweed [7, 20] | Plant response rating, Ragweed [7, 21] | Plant response rating, Velvetleaf [10, 21] | Plant response rating, Johnsongrass [13, 15]
98: Plant response rating, Pigweed [2, 16] | Plant response rating, Pigweed [2, 17] | Lambsquarters plant response rating [3, 19] | Plant response rating, Goosegrass [4, 18] | Goosegrass plant response rating [4, 19] | Plant response rating, Ragweed [7, 17]
65: Oat, Wild plant response rating (wild oat (Avena fatua); [19])
70: Plant response rating, Cupgrass, Woolly [5, 18] | Corn plant response rating (corn (Zea mays); [19]) | Plant response rating, Soybean (soybean (Glycine max); [20]) | Plant response rating, Soybean (soybean (Glycine max); [21]) | Plant response rating, Surinam Grass [14, 17]
90: Plant response rating, Lambsquarters [3, 16] | Plant response rating, Goosegrass [4, 16] | Plant response rating, Goosegrass [4, 17] | Plant response rating, Soybean (soybean (Glycine max); [15]) | Plant response rating, Nutsedge, Yellow [9, 15] | Velvetleaf plant response rating [10, 19] | Velvetleaf plant response rating [10, 22]
30: Wheat plant response rating [1, 19] | Plant response rating, Blackgrass [6, 15] | Plant response rating, Nutsedge, Yellow [9, 16] | Nutsedge, Yellow plant response rating [9, 22] | Plant response rating, Bromegrass, Downy [12, 15] | Bromegrass, Downy plant response rating [12, 19] | Oat, Wild plant response rating (wild oat (Avena fatua); [22])
95: Plant response rating, Lambsquarters [3, 17] | Plant response rating, Lambsquarters [3, 18] | Plant response rating, Soybean (soybean (Glycine max); [16]) | Plant response rating, Soybean (soybean (Glycine max); [17]) | Plant response rating, Soybean (soybean (Glycine max); [18]) | Plant response rating, Velvetleaf [10, 15] | Plant response rating, Surinam Grass [14, 15]
20: Plant response rating, Nutsedge, Yellow [9, 21] | Plant response rating, Bromegrass, Downy [12, 18] | Plant response rating, Surinam Grass [14, 21]
100: Plant response rating, Pigweed [2, 15] | Plant response rating, Pigweed [2, 18] | Pigweed plant response rating [2, 19] | Plant response rating, Pigweed [2, 20] | Plant response rating, Pigweed [2, 21] | Pigweed plant response rating [2, 22] | Plant response rating, Lambsquarters [3, 15] | Plant response rating, Lambsquarters [3, 20] | Plant response rating, Lambsquarters [3, 21] | Lambsquarters plant response rating [3, 22] | Plant response rating, Goosegrass [4, 15] | Goosegrass plant response rating [4, 22] | Plant response rating, Ragweed [7, 15] | Plant response rating, Ragweed [7, 18] | Ragweed plant response rating [7, 19] | Ragweed plant response rating [7, 22] | Soybean plant response rating (soybean (Glycine max); [19]) | Plant response rating, Kochia (kochia (Kochia scoparia); [15]) | Plant response rating, Kochia (kochia (Kochia scoparia); [18]) | Kochia plant response rating (kochia (Kochia scoparia); [19]) | Plant response rating, Kochia (kochia (Kochia scoparia); [20]) | Plant response rating, Kochia (kochia (Kochia scoparia); [21]) | Kochia plant response rating (kochia (Kochia scoparia); [22]) | Plant response rating, Crabgrass, Large [11, 15] | Crabgrass, Large plant response rating [11, 22]
60: Plant response rating, Cupgrass, Woolly [5, 16] | Plant response rating, Cupgrass, Woolly [5, 17] | Cupgrass, Woolly plant response rating [5, 22] | Plant response rating, Velvetleaf [10, 17] | Plant response rating, Crabgrass, Large [11, 18] | Crabgrass, Large plant response rating [11, 19] | Surinam Grass plant response rating [14, 22]
